{"source": "patent US6803466B1", "about": "“HIV/FIV protease inhibitors having a small P3 residue” (The Scripps Research Institute, priority 1997, dated 2004)", "type_in_all_cases": "cell-based", "key": {"wild type HIV PR": {"system": "wild type HIV PR", "experiment": "Cell culture IC90, wild type", "conditions": "Human immunodeficiency virus 1, read-out: IC90 against the wild type HIV PR"}, "uninfected 174×CEM cells": {"system": "uninfected 174×CEM cells", "experiment": "Effect on uninfected cells of the SIV assay", "conditions": "10, 1.0, 0.1 and 0.001 μg/ml", "protocol": "Cells were acutely infected with approximately 400 TCID50 units of SIVmac251 for 90 min at 37° C. The cells were collected by centrifugation, washed twice with medium to remove free virus, then plated in 0.45 ml medium in 48-well tissue culture plates, at 10^5 cells per well. Compound 1200, prepared as a 10 mg/ml stock in DMSO, was then added to final concentrations of 10, 1.0, 0.1, and 0.001 μg/ml final concentrations, in triplicate cultures. Triplicate control cultures received medium only."}, "MT-2 cells": {"system": "MT-2 cells", "experiment": "Toxicity to host cells of the HIV assay", "protocol": "The results from tissue culture assays against SIV (FIG. 14) and HIV (FIG. 14) were equally encouraging. […] The effectiveness of compound 1200 against HIV was measured by determining the percentage of viable cells remaining in culture over time in the presence and absence of drug (FIG. 14). In the control, HIV caused formation of multinucleated syncytia and 100% cell death by 9 days post infection. However, the cells cultured with 1 μg/ml (1.1 μM) or 5 μg/ml (5.5 μM) of inhibitor 1200 remained 100% viable after 1 month, identical to results obtained in the absence of virus infection. To test for virus in these cultures, supernatants were removed and added to 1×10^5 uninfected MT-2 cells after a 1:5 dilution with fresh CM. […]\nWEAU-1.6, a kind gift of George Shaw, University of Alabama (^18), a CXCR4 utilizing isolate, was used for all studies. […] For testiing of the antiviral efficacy of compound 1200 in MT-2 were assessed every day using a Olympus (model) inverted microscope equipped with phase contrast objectives. […] A total of 200 cells were counted in each well, and when syncytia were noted, cells were removed and tested for viability by using trypan-blue. Results are expressed as the average of viable cells."}}}
{"smiles": "CC(C)[C@H](NC(=O)[C@H](C)NC(=O)OCc1ccccc1)C(=O)N[C@@H](Cc1ccccc1)[C@@H](O)[C@H](O)[C@H](Cc1ccccc1)NC(=O)[C@@H](NC(=O)[C@H](C)NC(=O)OCc1ccccc1)C(C)C", "note": "[Compound 1b]", "values": [{"measurement": "IC90", "setting": "wild type HIV PR", "value": 100, "unit": "nM"}, {"measurement": "effects on uninfected cells", "setting": "uninfected 174×CEM cells", "value": "no effects noted"}, {"measurement": "toxicity to host cells", "setting": "MT-2 cells", "value": "minimal toxicity"}]}
